From US20130245064A1, “NOVEL NEUROTRYPSIN INHIBITORS” (priority 2010, published 2013)
Where two headings read alike, the source gives them in different places.

Assays:
[1] = biological target: T1, human neurotrypsin (Homo sapiens, UniProt P56730); experiment: Determination of IC50 for human neurotrypsin; assay type: biochemical
T1 sequence (P56730 21-875): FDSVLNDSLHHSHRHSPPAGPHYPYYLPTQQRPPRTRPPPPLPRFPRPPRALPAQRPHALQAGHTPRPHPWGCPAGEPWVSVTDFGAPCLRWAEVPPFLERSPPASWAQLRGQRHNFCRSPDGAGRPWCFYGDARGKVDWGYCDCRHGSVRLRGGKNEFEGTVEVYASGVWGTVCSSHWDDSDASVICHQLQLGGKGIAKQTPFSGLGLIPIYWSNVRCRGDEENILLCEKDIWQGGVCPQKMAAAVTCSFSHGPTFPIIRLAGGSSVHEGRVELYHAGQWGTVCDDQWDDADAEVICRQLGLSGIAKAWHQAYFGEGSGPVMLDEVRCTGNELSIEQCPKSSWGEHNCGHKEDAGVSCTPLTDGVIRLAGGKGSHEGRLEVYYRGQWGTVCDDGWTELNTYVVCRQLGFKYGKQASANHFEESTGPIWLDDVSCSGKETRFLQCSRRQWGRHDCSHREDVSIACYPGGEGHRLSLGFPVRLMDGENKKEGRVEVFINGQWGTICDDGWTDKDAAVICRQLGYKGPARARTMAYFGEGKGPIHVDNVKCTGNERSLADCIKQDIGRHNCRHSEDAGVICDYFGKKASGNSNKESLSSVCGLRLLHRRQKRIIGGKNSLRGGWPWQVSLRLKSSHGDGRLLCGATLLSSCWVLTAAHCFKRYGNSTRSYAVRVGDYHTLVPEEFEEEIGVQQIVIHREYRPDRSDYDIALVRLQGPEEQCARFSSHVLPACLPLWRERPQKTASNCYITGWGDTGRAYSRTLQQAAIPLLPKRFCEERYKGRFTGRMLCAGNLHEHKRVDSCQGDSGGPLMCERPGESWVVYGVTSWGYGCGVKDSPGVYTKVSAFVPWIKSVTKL
Protocol: Determination of IC50 for Human Neurotrypsin
Assessment of the potency of compounds of examples 1-14 in inhibiting the enzymatic activity of human neurotrypsin was performed according to the method described in patent application […]

[2] = biological target: T2, Kallikrein (Homo sapiens, UniProt P03952); experiment: Determination of IC50 for various proteases: kallikrein; assay type: biochemical; details: kallikrein 2 nM, substrate S-2288 0.5 mM; Mean ± SD
T2 construct: purchased American diagnostic
T2 sequence (P03952 391-638 limits assumed): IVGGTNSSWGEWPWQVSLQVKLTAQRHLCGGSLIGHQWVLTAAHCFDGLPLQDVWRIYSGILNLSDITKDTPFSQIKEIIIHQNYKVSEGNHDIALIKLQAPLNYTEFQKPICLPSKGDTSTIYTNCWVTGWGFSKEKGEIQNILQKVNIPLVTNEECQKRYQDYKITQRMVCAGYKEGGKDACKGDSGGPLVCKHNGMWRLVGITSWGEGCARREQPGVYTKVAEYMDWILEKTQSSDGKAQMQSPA
T2 sequence (P03952 20-390 limits assumed): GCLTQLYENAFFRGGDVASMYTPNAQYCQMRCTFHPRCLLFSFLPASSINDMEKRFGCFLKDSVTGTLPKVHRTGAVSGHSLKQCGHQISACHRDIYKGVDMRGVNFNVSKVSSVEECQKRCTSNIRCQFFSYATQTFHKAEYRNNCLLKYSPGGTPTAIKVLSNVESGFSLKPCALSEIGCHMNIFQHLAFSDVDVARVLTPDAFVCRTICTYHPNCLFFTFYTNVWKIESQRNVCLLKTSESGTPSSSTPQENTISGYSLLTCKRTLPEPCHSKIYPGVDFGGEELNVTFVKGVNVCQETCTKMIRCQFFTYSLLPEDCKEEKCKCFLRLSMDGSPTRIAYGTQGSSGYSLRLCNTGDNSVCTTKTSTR
Protocol: A 6 mM solution of the test compound in DMSO was prepared. In a V-bottom micro plate the 6 mM compound solution was diluted 6 times in DMSO to obtain a concentration row with the following concentrations: 6 mM, 1.8 mM, 540 μM, 162 μM, 48.8 μM, 14.4 μM, and 4 μM. From this DMSO master plate 1:20 dilutions in 10 mM MOPS pH 8.3 were prepared to obtain solutions of 300, 90, 27, 8.1, 2.44, 0.72 and 0.22 μM in MOPS buffer and 5% DMSO.
100 μl of this solution were pipetted into a flat bottom 96 well microplate and placed into a Tecan infinite 200 plate reader. Before measurement, 50 μl of protease solution and, subsequently 50 μl substrate solution were added by the machine. The liberation of free para nitroanilide was detected at 405 nm. The protease solution was freshly prepared by diluting to the desired concentration from a stock solution in 60 mM MOPS; 600 mM NaCl; 20 mM CaCl2; 10% DMSO; 0.4% PEG 6000 pH 8.3. The substrate solution was prepared by dissolving the solid substrate in an adequate amount of water to get the desired concentrations. The used protease and substrate solutions are given below:
All enzymes except trypsin were from human origin (American diagnostic). Trypsin was hog trypsin (Sigma Aldrich). Substrates were purchased from Chromogenix. […]

[3] = Effect of compound on body weight in mice; assay type: in vivo, C57/BL6 mice; details: 25 mg/kg, three subcutaneous injections
Protocol: Adult (P50) C57/BL6 mice from Charles River were used for the experiments. All animal experiments are performed in accordance with international guidelines for proper conduct of animal experiment under jurisdiction of the Swiss law (Permit number ZH-18/2008). For every mouse in the experiment the well-being during the interventions is documented in a score sheet.
The mice are housed under optimal hygienic conditions (OHB) with controlled air-conditioning and lighting (temperature: 20-24° C., humidity: 55-65%, day/night cycle: 12 h/12 h, lights on 7 a.m.). Individually ventilated cages of type II, L (530 cm^2 floor space) with standard litter are used. A maximum of 6 mice is kept in each cage. Mice are fed with standard rodent chow (Extrudat, KLIBA NAFAG) ad libitum and have free access to drinking water. Animal colony is managed and maintained at BioSupport, Schlieren.
Three adult mice were treated with 2.5 ml/kg of a 10 mg/ml solution of the compound of Example 1 in 100% DMSO. This corresponds to a dose of 25 mg/kg active ingredient. As vehicle control, 3 mice were treated with 2.5 ml/kg of 100% DMSO. Each mouse received three subcutaneous injections. Between dose 1 and dose 2 there were 8 h, between dose 2 and dose 3 16 h. 5 h after the last injection the mice were euthanatized with CO2. […]

IC50 ([1]; Mean ± SD, read-out: IC50 Neurotrypsin): 470 ± 150 nM
IC50 ([1]; table of all 14 examples, read-out: Neurotrypsin IC50): 400 nM
melting point: > 220 °C
IC50 [2]: > 150 µM
SMILES: O=C(Nc1ccc(C(=O)Nc2ccc(Cl)cc2)c(O)c1)c1ccc(-c2nc3cc(Cl)c(Cl)cc3[nH]2)cc1 [Example 1, N-(4-Chlorophenyl)-4-(4-(5,6-dichloro-1H-benzo[d]imidazol-2-yl)benzamido)-2-hydroxybenzamide]
Weight loss compared to the vehicle control [3]: did not produce any increase in weight loss
